In patent publication US4528190A, “GRF Analogs IV” (The Salk Institute For Biological Studies, priority 1984, dated 1985):
Square brackets hold non-standard residues; d marks the D form. Ends that are not written are not given here. Peptide text beside a SMILES is read from it. Nle = CCCC[C@H](N)C(=O)O

Tested on: cells of rat pituitary glands
Test: in vitro GH release from cultured rat pituitary cells, compared side by side with synthetic hpGRF(1-40)-OH as standard
Format: cell-based
Settings: GH release relative to standard hGRF(1-40)-OH = 100%; equimolar concentrations; incubation 3 to 4 hours; immunoreactive GH by radioimmunoassay
Procedure: To determine the relative effectiveness of certain representative synthetic peptides to promote the release of growth hormone, in vitro assays are carried out using synthetic hpGRF(1-40)-OH as a standard in side-by-side comparison with equimolar concentrations of the representative analogs which have been synthesized. Cultures are used which include cells of rat pituitary glands removed some three to five days previously. Such cultures are considered optimal for the secretion of growth hormone and are used for the comparative testing, in the general manner described in Vale et al. Endocrinology, 91, 562-572 (1972) and as more particularly described in Vale et al. Endocrinology, 112, 1553-1555 (1983). Incubation with the substance to be tested is carried out for 3 to 4 hours, and aliquots of the culture medium are removed and processed to measure their contents in immunoreactive GH(ir GH) by a well-characterized radioimmunoassay.

Molecule | Comparison % [%]
CCCC[C@H](NC(=O)[C@@H](NC(=O)[C@H](CCC(=O)O)NC(=O)[C@H](Cc1c[nH]cn1)NC(=O)[C@H](CC(C)C)NC(=O)[C@H](CC(C)C)NC(=O)[C@H](CCCCN)NC(=O)[C@H](CCCNC(=N)N)NC(=O)[C@H](C)NC(=O)[C@H](Cc1ccc(O)cc1)NC(=O)[C@H](CC(C)C)NC(=O)[C@H](CCC(N)=O)NC(=O)CNC(=O)[C@@H](CC(C)C)NC(=O)[C@@H](NC(=O)[C@H](CCCNC(=N)N)NC(=O)[C@H](CCCNC(=N)N)NC(=O)[C@H](Cc1ccc(O)cc1)NC(=O)[C@H](CO)NC(=O)[C@H](CO)NC(=O)[C@@H](NC(=O)[C@H](Cc1ccccc1)NC(=O)[C@@H](NC(=O)[C@H](C)NC(=O)[C@H](CC(=O)O)NC(=O)[C@H](C)NC(=O)[C@@H](N)Cc1c[nH]cn1)[C@@H](C)CC)[C@@H](C)O)[C@@H](C)CC)[C@@H](C)CC)C(=O)N[C@@H](CC(N)=O)C(=O)N[C@@H](CCCNC(=N)N)C(N)=O [[D-Leu^14, Nle^27]-rGRF(1-29)-NH2] (H-HADAIFTSSYRRI[dL]GQLYARKLLHEI[Nle]NR-NH2) | 120
CCCC[C@H](NC(=O)[C@@H](NC(=O)[C@H](CCC(=O)O)NC(=O)[C@H](Cc1c[nH]cn1)NC(=O)[C@H](CC(C)C)NC(=O)[C@H](CC(C)C)NC(=O)[C@H](CCCCN)NC(=O)[C@H](CCCNC(=N)N)NC(=O)[C@H](C)NC(=O)[C@H](Cc1ccc(O)cc1)NC(=O)[C@H](CC(C)C)NC(=O)[C@H](CCC(N)=O)NC(=O)CNC(=O)[C@H](CC(C)C)NC(=O)[C@@H](NC(=O)[C@H](CCCNC(=N)N)NC(=O)[C@H](CCCNC(=N)N)NC(=O)[C@H](Cc1ccc(O)cc1)NC(=O)[C@H](CO)NC(=O)[C@H](CO)NC(=O)[C@@H](NC(=O)[C@H](Cc1ccccc1)NC(=O)[C@@H](NC(=O)[C@H](C)NC(=O)[C@H](CC(=O)O)NC(=O)[C@H](C)NC(=O)[C@@H](N)Cc1c[nH]cn1)[C@@H](C)CC)[C@@H](C)O)[C@@H](C)CC)[C@@H](C)CC)C(=O)N[C@@H](CC(N)=O)C(=O)N[C@H](CCCNC(=N)N)C(N)=O [[Nle^27, D-Arg^29]-rGRF(1-29)-NH2] (H-HADAIFTSSYRRILGQLYARKLLHEI[Nle]N[dR]-NH2) | 386
hGRF(1-40)-OH (YADAIFTNSYRKVLGQLSARKLLQDIMSRQQGESNQERGA-OH; UniProt P01286 32-71, looked up, fragment) [synthetic human pancreatic (tumor) GH releasing factor, residues 1-40, free acid; standard for the tests, reference compound] | 100
